# Results from patent US8053439B2, “Benzophenone derivatives useful for inhibiting formation of microtubule” (Chong Kun Dang Pharmaceutical Corp., priority 2006, dated 2011).
# Tested on: HL60 cells
# Test: Inhibition effect of HL60 cell line growth (MTT, 3 days)
# Type: cell-based
# Details: Homo sapiens, HL-60, 72 h, read-out: HL60 Growth Inhibition
# Method: 1. Inhibition Effect of HL60 Cell Line Growth
# A 10% FBS-contained RPMI1640 badge was used for culturing HL60 cells. The test substance was prepared by dissolving in DMSO to a concentration of 10 mg/ml, and continuously diluting with PBS to a final concentration of 100 μg/ml to 0.03 μg/ml. In a 96-well microplate, 180 μl of the badge containing 6.0×10^4 cells/ml of cells and 20 μl of continuously diluted test substance were added. The mixture was cultured at 37° C. with 5% CO2 atmosphere for 3 days. After completion of the cultivation, 50 μl of a solution of 1.25 mg/ml MTT (3-(4,5-dimethylthiazol-2-yl)-2,5-diphenyltetrazolium bromide) dissolved in PBS was added to all wells, and the resulting mixture was reacted at 37° C. for 3 hours. Thus formed formazan crystals were dissolved in 150 μl of DMSO, and an absorbance was measured at 570 nm.
row,SMILES,IC50
1,"COc1ccc(-c2ncco2)cc1C(=O)c1cc(OC)c(OC)c(OC)c1 [Compound 590, (2-methoxy-5-(oxazol-2-yl)phenyl)(3,4,5-trimethoxyphenyl)methanone]",10 nM
2,"COc1cc(C(=O)c2cc(-c3ccco3)cc(OC)c2OC)cc(OC)c1OC [Compound 206, (5-(furan-2-yl)-2,3-dimethoxyphenyl)(3,4,5-trimethoxyphenyl)methanone]",145 nM

# Same assay, conditions: Homo sapiens, HL-60, 72 h; HL60 cells, 3 days culture, MTT, absorbance 570 nm; read-out: HL60 Growth Inhibition
row,IC50,SMILES
1,160 nM,"COc1cc(C(=O)c2cc(-c3cccc(NS(C)(=O)=O)c3)ccc2F)cc(OC)c1OC [Compound 486, N-[4′-fluoro-3′-(3,4,5-trimethoxybenzoyl)-biphenyl-3-yl]-methanesulfonamide]"
2,40 nM,"COc1cc(C(=O)c2cc(-c3nccs3)ccc2-c2cnco2)cc(OC)c1OC [Compound 375, (2-(oxazol-5-yl)-5-(thiazol-2-yl)phenyl)(3,4,5-trimethoxyphenyl)methanone]"
3,120 nM,"COc1ccc(-c2ccsc2)cc1C(=O)c1cc(OC)c(OC)c(OC)c1 [Compound 588, (2-methoxy-5-(thiophen-3-yl)phenyl)(3,4,5-trimethoxyphenyl)methanone]"
4,17 nM,"COc1cc(C(=O)c2cc(-c3ccccn3)ccc2N)cc(OC)c1OC [Compound 293, (2-amino-5-(pyridin-2-yl)phenyl)(3,4,5-trimethoxyphenyl)methanone]"
5,90 nM,"COc1cc(C(=O)c2ccc(-c3cccc(N)c3)cc2-n2cncn2)cc(OC)c1OC [Compound 525, (3′-amino-3-(1H-1,2,4-triazol-1-yl)biphenyl-4-yl)(3,4,5-trimethoxyphenyl)methanone]"
6,120 nM,"COc1cc(C(=O)c2cccc(-c3csc(N)n3)c2)cc(OC)c1OC [Compound 570, (3-(2-aminothiazol-4-yl)phenyl)(3,4,5-trimethoxyphenyl)methanone]"
7,110 nM,"COc1cc(C(=O)c2cc(-c3nccs3)ccc2NC(C)=O)cc(OC)c1OC [Compound 277, N-(4-(thiazol-2-yl)-2-(3,4,5-trimethoxybenzoyl)phenyl)acetamide]"
8,340 nM,"C=CCNc1ccc(-c2ccco2)cc1C(=O)c1cc(OC)c(OC)c(OC)c1 [Compound 238, (2-(allylamino)-5-(furan-2-yl)phenyl)(3,4,5-trimethoxyphenyl)methanone]"
9,320 nM,"COC(=O)Nc1nc(-c2ccc(C(=O)c3cc(OC)c(OC)c(OC)c3)c(-n3cncn3)c2)cs1 [Compound 561, methyl 4-(3-(1H-1,2,4-triazol-1-yl)-4-(3,4,5-trimethoxybenzoyl)phenyl)thiazol-2-yl carbamate]"
10,137 nM,"COc1ccc(-c2ccc(OC)c(C(=O)c3cc(OC)c(OC)c(OC)c3)c2)cc1 [Compound 213, (4,4′-dimethoxybiphenyl-3-yl)(3,4,5-trimethoxyphenyl)methanone]"
11,140 nM,"COc1cc(C(=O)c2ccc(-c3ccc[nH]3)cc2-n2cncn2)cc(OC)c1OC [Compound 599, (4-(1H-pyrrol-2-yl)-2-(1H-1,2,4-triazol-1-yl)phenyl)(3,4,5-trimethoxyphenyl)methanone]"
12,90 nM,"COc1cc(C(=O)c2cc(-c3ccco3)ccc2F)cc(OC)c1OC [Compound 327, (2-fluoro-5-(furan-2-yl)phenyl)(3,4,5-trimethoxyphenyl)methanone]"
13,120 nM,"COc1ccc(-c2csc(C)n2)cc1C(=O)c1cc(OC)c(OC)c(OC)c1 [Compound 595, (2-methoxy-5-(methylthiazol-4-yl)phenyl)(3,4,5-trimethoxyphenyl)methanone]"
14,220 nM,"COc1cc(C(=O)c2cc(-c3ccccn3)ccc2NS(C)(=O)=O)cc(OC)c1OC [Compound 335, N-(4-(pyridin-2-yl)-2-(3,4,5-trimethoxybenzoyl)phenyl)methanesulfonamide]"
15,3180 nM,"COc1cc(C(=O)c2ccc(-c3ccsc3)cc2F)cc(OC)c1OC [Compound 458, (2-fluoro-4-(thiophen-3-yl)phenyl)(3,4,5-trimethoxyphenyl)methanone]"
16,110 nM,"COc1cc(C(=S)c2cc(-c3ccco3)ccc2-n2cncn2)cc(OC)c1OC [Compound 399, (5-(furan-2-yl)-2-(1H-1,2,4-triazol-1-yl)phenyl)(3,4,5-trimethoxyphenyl)methanethione]"
17,25 nM,"COc1cc(C(=O)c2ccc(-c3cccc(NS(C)(=O)=O)c3)cc2-n2cncn2)cc(OC)c1OC [Compound 476, N-(3′-[1,2,4]triazol-1-yl-4′-(3,4,5-trimethoxybenzoyl)biphenyl-3-yl)methanesulfonamide]"
18,20 nM,COc1cc(C(=O)c2ccc(-c3cccc(S(N)(=O)=O)c3)cc2-n2cncn2)cc(OC)c1OC [Compound 550]
19,1690 nM,"C=CCc1cc(C(=O)c2cc(-c3ccco3)ccc2OC)cc(OC)c1O [Compound 269, (3-allyl-4-hydroxy-5-methoxyphenyl)(5-(furan-2-yl)-2-methoxyphenyl)methanone]"

row,IC50,SMILES
1,120 nM,"COc1cc(C(=O)c2cc(-c3ccco3)ccc2NC(C)=O)cc(OC)c1OC [Compound 231, N-(4-(furan-2-yl)-2-(3,4,5-trimethoxybenzoyl)phenyl)acetamide]"
2,1230 nM,"COc1cc(C(=O)c2cc(-c3ncco3)ccc2NC(C)=O)cc(OC)c1OC [Compound 296, N-(4-(oxazol-2-yl)-2-(3,4,5-trimethoxybenzoyl)phenyl)acetamide]"
3,110 nM,"COc1cc(C(=O)c2cc(-c3ccco3)ccc2NCCCO)cc(OC)c1OC [Compound 341, (5-(furan-2-yl)-2-(3-hydroxypropylamino)phenyl)(3,4,5-trimethoxyphenyl)methanone]"
4,270 nM,"COc1cc(C(=O)c2cc(-c3ccco3)ccc2NC(=O)CN)cc(OC)c1OC [Compound 237, 2-amino-N-(4-(furan-2-yl)-2-(3,4,5-trimethoxybenzoyl)phenyl)acetamide]"
5,110 nM,"COc1cc(C(=O)c2cc(-c3nccs3)ccc2C(O)CO)cc(OC)c1OC (stereo not shown) [Compound 372, (2-(1,2-dihydroxyethyl)-5-(thiazol-2-yl)phenyl)(3,4,5-trimethoxyphenyl)methanone]"
6,90 nM,"COc1cc(C(=O)c2cc(-c3nccs3)ccc2O)cc(OC)c1OC [Compound 601, (2-hydroxy-5-(thiazol-2-yl)phenyl)(3,4,5-trimethoxyphenyl)methanone]"
7,160 nM,"COc1cc(C(=O)c2cc(-c3csc(C)n3)ccc2N)cc(OC)c1OC [Compound 298, (2-amino-5-(2-methylthiazol-4-yl)phenyl)(3,4,5-trimethoxyphenyl)methanone]"
8,110 nM,"COc1cc(C(=O)c2cc(-c3ccco3)ccc2-n2ccnc2)cc(OC)c1OC [Compound 354, (5-(furan-2-yl)-2-(1H-imidazol-1-yl)phenyl)(3,4,5-trimethoxyphenyl)methanone]"
9,360 nM,"COc1cc(C(=O)c2cccc(-c3ccsc3)c2)cc(OC)c1OC [Compound 568, (3-(thiophen-3-yl)phenyl)(3,4,5-trimethoxyphenyl)methanone]"
10,100 nM,"COc1cc(C(=O)c2cc(-c3nccs3)cnc2-n2cncn2)cc(OC)c1OC [Compound 410, (5-(thiazol-2-yl)-2-(1H-1,2,4-triazol-1-yl)pyridin-3-yl)(3,4,5-trimethoxyphenyl)methanone]"
11,170 nM,"COc1cc(C(=O)c2cc(-c3ccsc3)ccc2NC(C)=O)cc(OC)c1OC [Compound 300, N-(4-(thiophen-3-yl)-2-(3,4,5-trimethoxybenzoyl)phenyl)acetamide]"
12,120 nM,"COc1cc(C(=O)c2cc(-c3cccs3)ccc2-n2cncn2)cc(OC)c1OC [Compound 391, (5-(thiophen-2-yl)-2-(1H-1,2,4,-triazol-1-yl)phenyl)(3,4,5-trimethoxyphenyl)methanone]"
13,60 nM,"COc1cc(C(=O)c2ccc(-c3cncs3)cc2-n2cncn2)cc(OC)c1OC [Compound 534, (4-(thiazol-5-yl)-2-(1H-1,2,4-triazol-1-yl)phenyl)(3,4,5-trimethoxyphenyl)methanone]"
14,110 nM,"COc1cc(C(=O)c2cc(-c3ccco3)ccc2-n2ccnn2)cc(OC)c1OC [Compound 379, (5-(furan-2-yl)-2-(1H-1,2,3,-triazol-1-yl)phenyl)(3,4,5-trimethoxyphenyl)methanone]"
15,110 nM,"COc1cc(C(=O)c2ccc(-c3csc(N)n3)cc2)cc(OC)c1OC [Compound 571, (4-(2-aminothiazol-4-yl)phenyl)(3,4,5-trimethoxyphenyl)methanone]"
16,30 nM,"COc1cc(C(=O)c2cc(-c3nccs3)ccc2-n2cncn2)cc(OC)c1OC [Compound 347, (5-(thiazol-2-yl)-2-(1H-1,2,4-triazol-1-yl)phenyl)(3,4,5-trimethoxyphenyl)methanone]"
17,90 nM,"COc1cc(C(=O)c2ccc(-c3nccs3)cc2-n2cncn2)cc(OC)c1OC [Compound 464, (4-(thiazol-2-yl)-2-(1H-1,2,4-triazol-1-yl)phenyl)(3,4,5-trimethoxyphenyl)methanone]"
18,35 nM,"COc1cc(C(=O)c2cc(-c3csc(N)n3)ccc2N)cc(OC)c1OC [Compound 297, (2-amino-5-(2-aminothiazol-4-yl)phenyl)(3,4,5-trimethoxyphenyl)methanone]"
19,330 nM,"COc1cc(C(=O)c2ccc(-c3c[nH]c(NC(C)=O)n3)cc2-n2cncn2)cc(OC)c1OC [Compound 531, N-(4-(3-(1H-1,2,4-triazol-1-yl)-4-(3,4,5-trimethoxybenzoyl)phenyl)-1H-imidazol-2-yl)acetamide]"
